# Source: the supplement of paper PMC4976141
# System: PC9
# Experiment: cell count fold change with erlotinib, miRNA mimic vs non-targeting control (log2 ratio); higher = more drug-tolerant survivors than NTC
# Settings: erlotinib 1 µM; 72 h drug + 72 h drug-free recovery; perturbation: miRNA mimic
row,Sequence,cell count fold change with erlotinib
1,UGCGGGGCUAGGGCUAACAGCA,0.647
2,AUCAUAGAGGAAAAUCCACGU,-3.73
3,AAAGUGCUGCGACAUUUGAGCGU,0.0776
4,CGGGGCAGCUCAGUACAGGAU,0.97
5,CUCUCACCACUGCCCUCCCACAG,-1.11
6,ACUUGUAUGCUAGCUCAGGUAG,-0.236
7,AAGUGAUCUAAAGGCCUACAU,-3.48
8,GUGUGCGGAAAUGCUUCUGCUA,-2.43
9,AUGGUUCCGUCAAGCACCAUGG,-2.16
10,UGAGCCCUGUCCUCCCGCAG,-3.68
11,UGGAGAGAAAGGCAGUUCCUGA,-1.98
12,CGGGUCGGAGUUAGCUCAAGCGG,-0.802
13,CUCAGUAGCCAGUGUAGAUCCU,-4.13
14,UAAGUGCUUCCAUGUUUGAGUGU,-0.491
15,AGGGUGUUUCUCUCAUCUCU,-1.29
16,AAGCAGCUGCCUCUGAGGC,0.0583
17,AAGCCCUUACCCCAAAAAGCAU,-1.75
18,CUACAAAGGGAAGCACUUUCUC,-2.75
19,UCACUCCUCUCCUCCCGUCUU,-4.11
20,AGGUUACCCGAGCAACUUUGCAU,-0.13
21,AACUGGCCCUCAAAGUCCCGCU,-0.145
22,AAGGAGCUCACAGUCUAUUGAG,-1.13
23,AAGCAUUCUUUCAUUGGUUGG,-1.49
24,ACGGAUGUUUGAGCAUGUGCUA,-2.45
25,AGAUCAGAAGGUGAUUGUGGCU,-0.11
26,AGGACCUGCGGGACAAGAUUCUU,0.369

row,Sequence,cell count fold change with erlotinib
1,AAACCUGUGUUGUUCAAGAGUC,-0.0774
2,UGUAGUGUUUCCUACUUUAUGGA,-4.91
3,CCCCCACAACCGCGCUUGACUAGCU,-0.523
4,UGCUUCCUUUCAGAGGGU,-3.13
5,AGGGGUGCUAUCUGUGAUUGA,0.941
6,UCGAGGAGCUCACAGUCUAGU,-0.737
7,UAGAGUUACACCCUGGGAGUUA,-3.48
8,CAAAGCGCUCCCCUUUAGAGGU,-0.185
9,GUGCAUUGCUGUUGCAUUGC,-2.3
10,UAGUGCAAUAUUGCUUAUAGGGU,-3.19
11,AUUCUGCAUUUUUAGCAAGUUC,-0.25
12,GUGGGUACGGCCCAGUGGGGGG,0.186
13,UAGCAGCGGGAACAGUUCUGCAG,-3.68
14,UAGCAGCACGUAAAUAUUGGCG,-2.26
15,UAAGUGCUUCCAUGUUUCAGUGG,-0.141
16,CAACGGAAUCCCAAAAGCAGCUG,-1.27
17,GUUGGAGGAUGAAAGUACGGAGUGAU,-2.24
18,UGUCUUGCAGGCCGUCAUGCA,-4.12
19,AUCACAUUGCCAGGGAUUUCC,-1.61
20,UUCAACGGGUAUUUAUUGAGCA,-3.32
21,CAACCUGGAGGACUCCAUGCUG,-0.199
22,GUGGCUGCACUCACUUCCUUC,-0.272
23,CUGGUUUCACAUGGUGGCUUAG,-2.28
24,AGGCAGCGGGGUGUAGUGGAUA,1.05
25,UUGCAGCUGCCUGGGAGUGACUUC,-2.6
26,UGUAAACAUCCUACACUCUCAGC,0.35

row,Sequence,cell count fold change with erlotinib
1,AACAUAGAGGAAAUUCCACGU,-1.33
2,UACUCAGGAGAGUGGCAAUCAC,-0.848
3,CAGGGAGGUGAAUGUGAU,1.99
4,AGCUGGUGUUGUGAAUCAGGCCG,-0.131
5,UACUUGGAAAGGCAUCAGUUG,-0.495
6,CAGUGCAAUGAUAUUGUCAAAGC,-2.68
7,CAAAGAGGAAGGUCCCAUUAC,-0.517
8,AGCAGCAUUGUACAGGGCUAUCA,-0.458
9,UACCCAGAGCAUGCAGUGUGAA,-2.53
10,UUGUACAUGGUAGGCUUUCAUU,-3.02
11,CAGUUAUCACAGUGCUGAUGCU,-1.92
12,UUAUGGUUUGCCUGGGACUGAG,-0.886
13,AGUUUUGCAGGUUUGCAUCCAGC,-0.535
14,AGCCUGGAAGCUGGAGCCUGCAGU,-0.167
15,UAGAUAAAAUAUUGGUACCUG,-1.41
16,CAAGCUCGUGUCUGUGGGUCCG,-1.13
17,ACAAAGUGCUUCCCUUUAGAGUGU,-0.659
18,UUUCCAUAGGUGAUGAGUCAC,-0.48
19,UGAGCCCCUGUGCCGCCCCCAG,-1.44
20,AGACUUCCCAUUUGAAGGUGGC,-0.166
21,UACGUCAUCGUUGUCAUCGUCA,-0.419
22,CAUCUUACUGGGCAGCAUUGGA,-2.32
23,AGCAGCAUUGUACAGGGCUAUGA,-0.577
24,AGUGAAUGAUGGGUUCUGACC,-3.04
25,UCGGAUCCGUCUGAGCUUGGCU,0.402
26,UGGGUCUUUGCGGGCGAGAUGA,-0.809

row,Sequence,cell count fold change with erlotinib
1,UUGGGAUCAUUUUGCAUCCAUA,0.519
2,UAAGGUGCAUCUAGUGCAGUUAG,-4.47
3,CGAAAACAGCAAUUACCUUUGC,-2.67
4,AGACCAUGGGUUCUCAUUGU,-1.65
5,UAGGCAGUGUCAUUAGCUGAUUG,-1.83
6,CUAGUGAGGGACAGAACCAGGAUUC,-2.96
7,GUAGAUUCUCCUUCUAUGAGUA,-1.33
8,UAACUGGUUGAACAACUGAACC,-0.919
9,UAGCAGCACAGAAAUAUUGGC,-1.13
10,AAAGCGCUUCCCUUCAGAGUG,-1.78
11,GGGCGACAAAGCAAGACUCUUUCUU,-2.38
12,ACUGUAGUAUGGGCACUUCCAG,-1.17
13,UAAGUGCUUCCAUGUUUUGGUGA,-1.35
14,GUGAGGGCAUGCAGGCCUGGAUGGGG,-0.605
15,UGGUUGUAGUCCGUGCGAGAAUA,1.81
16,CUCUAGAGGGAAGCACUUUCUC,-0.525
17,UAGCUUAUCAGACUGAUGUUGA,-2.58
18,GGUUUGGUCCUAGCCUUUCUA,0.113
19,AUGUAUGUGUGCAUGUGCAUG,0.321
20,AAAAACUGUAAUUACUUUU,0.031
21,GAAAGUGCUUCCUUUUAGAGGC,-0.077
22,CCAGUAUUAACUGUGCUGCUGA,-1.92
23,UGAGAACCACGUCUGCUCUGAG,-1.74
24,AAGGAGCUUACAAUCUAGCUGGG,-0.343
25,CUGGAGAUAUGGAAGAGCUGUGU,-0.316
